Assay results taken from ChEMBL document CHEMBL1800055, “Orally active MMP-1 sparing α-tetrahydropyranyl and α-piperidinyl sulfone matrix metalloproteinase (MMP) inhibitors with efficacy in cancer, arthritis, and cardiovascular disease” (J Med Chem, 2010).
Active and inactive are the calls of the source. The rule behind the calls is not given here.

Experiments:
[1] = system: PC-3; assay: Antitumor activity against human PC3 cells xenografted in BALB/c nu/nu mouse assessed as tumor growth inhibition at 200 mg/kg, po BID measured on 25 to 30 days relative to control; assay type: functional
[2] = system: PC-3; assay: Antitumor activity against human PC3 cells xenografted in BALB/c nu/nu mouse assessed as tumor growth inhibition at 25 mg/kg, po BID for 30 days measured on 25 to 30 days relative to control; assay type: functional
[3] = molecular target: 72 kDa type IV collagenase (Homo sapiens, UniProt P08253)
72 kDa type IV collagenase, sequence (P08253 whole entry): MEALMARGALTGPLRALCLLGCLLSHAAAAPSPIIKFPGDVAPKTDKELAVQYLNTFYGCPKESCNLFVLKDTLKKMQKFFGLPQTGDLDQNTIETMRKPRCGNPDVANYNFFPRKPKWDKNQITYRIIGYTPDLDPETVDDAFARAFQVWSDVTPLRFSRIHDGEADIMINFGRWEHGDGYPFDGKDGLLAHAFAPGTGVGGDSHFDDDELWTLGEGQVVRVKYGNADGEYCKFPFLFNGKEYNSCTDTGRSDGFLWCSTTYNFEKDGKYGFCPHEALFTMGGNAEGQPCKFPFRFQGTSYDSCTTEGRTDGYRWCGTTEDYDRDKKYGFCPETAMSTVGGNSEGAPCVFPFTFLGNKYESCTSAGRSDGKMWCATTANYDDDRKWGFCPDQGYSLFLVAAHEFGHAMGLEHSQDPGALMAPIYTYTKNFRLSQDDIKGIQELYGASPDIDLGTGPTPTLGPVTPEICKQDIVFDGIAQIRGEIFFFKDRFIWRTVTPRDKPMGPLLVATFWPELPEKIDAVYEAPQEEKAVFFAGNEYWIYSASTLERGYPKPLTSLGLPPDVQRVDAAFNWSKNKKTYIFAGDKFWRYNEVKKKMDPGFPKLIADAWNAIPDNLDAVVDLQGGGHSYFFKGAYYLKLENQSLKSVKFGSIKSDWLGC

[4] = Half life in rat at 20 mg/kg, po; assay type: ADME, organism-based; set-up: dose 20 mg/kg, route oral; conditions: in vivo
[5] = system: PC-3; assay: Antitumor activity against human PC3 cells xenografted in po dosed BALB/c nu/nu mouse assessed as tumor growth inhibition administered BID measured on 25 to 30 days; assay type: functional, organism-based
[6] = system: Cartilage tissue; assay: Ex vivo inhibition of IL-1 and oncostatin M-induced bovine nasal cartilage degradation assessed as release of hydroxproline measured up to 16 days by mass spectrometry; assay type: functional, tissue-based; conditions: Bos taurus, 384 h
[7] = system: PC-3; assay: Antitumor activity against human PC3 cells xenografted in BALB/c nu/nu mouse assessed as tumor growth inhibition at 100 mg/kg, po BID measured on 25 to 30 days relative to control; assay type: functional
[8] = system: Rattus norvegicus; assay: Cardioprotective activity in rat myocardial infarction model assessed inhibition of left ventricular dilation at 50 mg/kg, po qd for 4 weeks (reference value: 0.69 +/- 0.02 mL); assay type: functional, Heart left ventricle
[9] = molecular target: Neutrophil collagenase (Homo sapiens, UniProt P22894)
Neutrophil collagenase, sequence (P22894 whole entry): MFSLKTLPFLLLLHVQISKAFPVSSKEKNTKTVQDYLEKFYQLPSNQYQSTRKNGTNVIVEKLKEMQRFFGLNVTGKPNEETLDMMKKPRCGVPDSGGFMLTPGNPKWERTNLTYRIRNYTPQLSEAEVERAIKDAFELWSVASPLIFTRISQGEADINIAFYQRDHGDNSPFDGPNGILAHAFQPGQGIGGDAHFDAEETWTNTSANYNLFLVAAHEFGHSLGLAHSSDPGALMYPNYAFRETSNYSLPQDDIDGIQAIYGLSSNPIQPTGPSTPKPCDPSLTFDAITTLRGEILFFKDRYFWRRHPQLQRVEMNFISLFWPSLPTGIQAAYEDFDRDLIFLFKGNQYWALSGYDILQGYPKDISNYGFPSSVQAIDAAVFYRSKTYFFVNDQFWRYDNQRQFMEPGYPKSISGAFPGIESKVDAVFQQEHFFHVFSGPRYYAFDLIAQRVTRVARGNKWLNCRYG

[10] = system: Rattus norvegicus; assay: Plasma concentration in rat at 20 mg/kg, po; assay type: ADME, organism-based; set-up: dose 20 mg/kg, route oral; conditions: in vivo
[11] = molecular target: T1, Interstitial collagenase (Homo sapiens, UniProt P03956); assay type: cell-based, HT-1080
T1 sequence (P03956 whole entry): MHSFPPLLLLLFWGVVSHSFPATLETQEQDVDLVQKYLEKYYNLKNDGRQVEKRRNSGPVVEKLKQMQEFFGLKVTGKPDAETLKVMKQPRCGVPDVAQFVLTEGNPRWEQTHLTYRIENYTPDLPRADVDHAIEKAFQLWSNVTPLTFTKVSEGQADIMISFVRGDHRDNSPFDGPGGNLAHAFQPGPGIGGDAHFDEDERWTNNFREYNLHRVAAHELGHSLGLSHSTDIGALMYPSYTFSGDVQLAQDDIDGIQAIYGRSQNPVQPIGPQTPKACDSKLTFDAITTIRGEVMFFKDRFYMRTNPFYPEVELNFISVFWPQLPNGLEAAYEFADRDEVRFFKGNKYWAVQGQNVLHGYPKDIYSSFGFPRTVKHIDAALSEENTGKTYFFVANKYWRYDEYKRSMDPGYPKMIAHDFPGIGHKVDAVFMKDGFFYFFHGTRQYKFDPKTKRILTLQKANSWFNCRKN

[12] = system: MX1; assay: Antitumor activity against human MX1 cells xenografted in cyclophosphamide-treated nude mouse adjuvant model assessed as increase in mouse survival time at 6 to 50 mg/kg, po BID measured up to 90 days; assay type: functional, organism-based
[13] = system: Mus musculus; assay: Toxicity in mouse assessed as mortality administered bid for 90 days; assay type: organism-based; conditions: in vivo, 2160 h
[14] = molecular target: T2, Matrilysin (Homo sapiens, UniProt P09237)
T2 sequence (P09237 whole entry): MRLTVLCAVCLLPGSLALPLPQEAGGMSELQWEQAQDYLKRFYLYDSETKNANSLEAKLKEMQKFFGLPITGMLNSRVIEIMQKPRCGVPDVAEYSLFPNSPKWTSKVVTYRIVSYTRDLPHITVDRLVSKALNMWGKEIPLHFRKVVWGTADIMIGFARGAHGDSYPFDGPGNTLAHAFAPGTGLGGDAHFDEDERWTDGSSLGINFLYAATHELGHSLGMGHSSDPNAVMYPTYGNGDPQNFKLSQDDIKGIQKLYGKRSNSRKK

[15] = Cmax in rat at 20 mg/kg, po; assay type: ADME, organism-based; set-up: dose 20 mg/kg, route oral; conditions: in vivo
[16] = molecular target: Stromelysin-1 (Homo sapiens, UniProt P08254)
Stromelysin-1, sequence (P08254 whole entry): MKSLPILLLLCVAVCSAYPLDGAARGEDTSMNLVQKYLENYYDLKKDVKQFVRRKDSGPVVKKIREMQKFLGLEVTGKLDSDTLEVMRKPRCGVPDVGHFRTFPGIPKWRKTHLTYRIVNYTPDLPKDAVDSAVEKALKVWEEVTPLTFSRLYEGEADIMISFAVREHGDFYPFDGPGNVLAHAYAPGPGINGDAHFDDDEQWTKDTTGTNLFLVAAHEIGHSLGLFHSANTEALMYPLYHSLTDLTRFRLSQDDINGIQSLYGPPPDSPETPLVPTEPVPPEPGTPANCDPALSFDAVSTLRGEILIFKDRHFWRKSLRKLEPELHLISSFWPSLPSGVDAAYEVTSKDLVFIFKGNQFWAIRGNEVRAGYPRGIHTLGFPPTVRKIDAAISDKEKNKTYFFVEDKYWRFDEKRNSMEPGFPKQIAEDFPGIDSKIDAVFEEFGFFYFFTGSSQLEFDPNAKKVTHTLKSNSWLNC

[17] = Oral bioavailability in rat at 20 mg/kg; assay type: ADME, organism-based; conditions: in vivo
[18] = molecular target: Collagenase 3 (Homo sapiens, UniProt P45452)
[19] = Cmax in male dog at 20 mg/kg, po after 24 hrs; assay type: ADME, organism-based, Canis lupus familiaris; set-up: dose 20 mg/kg, route oral; conditions: in vivo
[20] = AUC (0 to infinity) in male mouse at 20 mg/kg, po after 24 hrs; assay type: ADME, organism-based; set-up: time infinity, dose 20 mg/kg, route oral; conditions: plasma
[21] = system: Mus musculus; assay: Antiangiogenic activity in cornea of mouse bFGF-induced corneal micropocket model assessed as inhibition of angiogenesis at 5 mg/kg administered as BID; assay type: functional
[22] = Cmax in female mouse at 20 mg/kg, po after 24 hrs; assay type: ADME, organism-based; set-up: dose 20 mg/kg, route oral; conditions: in vivo
[23] = Tmax in male rat at 20 mg/kg, po after 24 hrs; assay type: ADME, organism-based; set-up: dose 20 mg/kg, route oral; conditions: in vivo
[24] = AUC (0 to infinity) in female mouse at 20 mg/kg, po after 24 hrs; assay type: ADME, organism-based; set-up: time infinity, dose 20 mg/kg, route oral; conditions: plasma
[25] = Oral bioavailability in male mouse at 20 mg/kg after 24 hrs; assay type: ADME, organism-based; conditions: in vivo
[26] = Cmax in female rat at 20 mg/kg, po after 24 hrs; assay type: ADME, organism-based; set-up: dose 20 mg/kg, route oral; conditions: in vivo
[27] = AUC (0 to infinity) in female dog at 20 mg/kg, po after 24 hrs; assay type: ADME, organism-based, Canis lupus familiaris; set-up: time infinity, dose 20 mg/kg, route oral; conditions: plasma
[28] = Cmax in female dog at 20 mg/kg, po after 24 hrs; assay type: ADME, organism-based, Canis lupus familiaris; set-up: dose 20 mg/kg, route oral; conditions: in vivo
[29] = Oral bioavailability in female dog at 20 mg/kg after 24 hrs; assay type: ADME, organism-based, Canis lupus familiaris; conditions: in vivo
[30] = Oral bioavailability in male dog at 20 mg/kg after 24 hrs; assay type: ADME, organism-based, Canis lupus familiaris; conditions: in vivo
[31] = Cmax in cynomolgus monkey at 20 mg/kg, po after 24 hrs; assay type: ADME, organism-based, Macaca fascicularis; set-up: dose 20 mg/kg, route oral; conditions: in vivo
[32] = AUC (0 to infinity) in female rat at 20 mg/kg, po after 24 hrs; assay type: ADME, organism-based; set-up: time infinity, dose 20 mg/kg, route oral; conditions: plasma
[33] = Oral bioavailability in cynomolgus monkey at 20 mg/kg after 24 hrs; assay type: ADME, organism-based, Macaca fascicularis; conditions: in vivo
[34] = AUC (0 to infinity) in cynomolgus monkey at 20 mg/kg, po after 24 hrs; assay type: ADME, organism-based, Macaca fascicularis; set-up: dose 20 mg/kg, route oral, time infinity; conditions: plasma
[35] = Cmax in male mouse at 20 mg/kg, po after 24 hrs; assay type: ADME, organism-based; set-up: dose 20 mg/kg, route oral; conditions: in vivo
[36] = Tmax in male dog at 20 mg/kg, po after 24 hrs; assay type: ADME, organism-based, Canis lupus familiaris; set-up: dose 20 mg/kg, route oral; conditions: in vivo
[37] = Oral bioavailability in female mouse at 20 mg/kg after 24 hrs; assay type: ADME, organism-based; conditions: in vivo
[38] = Tmax in female rat at 20 mg/kg, po after 24 hrs; assay type: ADME, organism-based; set-up: dose 20 mg/kg, route oral; conditions: in vivo
[39] = Tmax in cynomolgus monkey at 20 mg/kg, po after 24 hrs; assay type: ADME, organism-based, Macaca fascicularis; set-up: dose 20 mg/kg, route oral; conditions: in vivo
[40] = Tmax in female dog at 20 mg/kg, po after 24 hrs; assay type: ADME, organism-based, Canis lupus familiaris; set-up: dose 20 mg/kg, route oral; conditions: in vivo
[41] = Cmax in male rat at 20 mg/kg, po after 24 hrs; assay type: ADME, organism-based; set-up: dose 20 mg/kg, route oral; conditions: in vivo
[42] = Oral bioavailability in female rat at 20 mg/kg after 24 hrs; assay type: ADME, organism-based; conditions: in vivo
[43] = AUC (0 to infinity) in male rat at 20 mg/kg, po after 24 hrs; assay type: ADME, organism-based; set-up: time infinity, dose 20 mg/kg, route oral; conditions: plasma
[44] = Tmax in female mouse at 20 mg/kg, po after 24 hrs; assay type: ADME, organism-based; set-up: dose 20 mg/kg, route oral; conditions: in vivo
[45] = Oral bioavailability in male rat at 20 mg/kg after 24 hrs; assay type: ADME, organism-based; conditions: in vivo
[46] = AUC (0 to infinity) in male dog at 20 mg/kg, po after 24 hrs; assay type: ADME, organism-based, Canis lupus familiaris; set-up: time infinity, dose 20 mg/kg, route oral; conditions: plasma
[47] = system: Rattus norvegicus; assay: Cardioprotective activity in rat myocardial infarction model assessed inhibition of left ventricular dilation at 10 mg/kg, po qd for 4 weeks (reference value: 0.59 +/- 0.02 mL); assay type: functional, Heart left ventricle
[48] = Tmax in male mouse at 20 mg/kg, po after 24 hrs; assay type: ADME, organism-based; set-up: dose 20 mg/kg, route oral; conditions: in vivo

O=C(NO)C1(S(=O)(=O)c2ccc(Oc3ccc(OC(F)(F)F)cc3)cc2)CCN(C2CC2)CC1
inhibition in vivo at 200 mg/kg [1]: 65%
inhibition in vivo at 25 mg/kg [2]: 49%
IC50 [3]: < 0.1 nM
half-life [4]: 2.85 h
inhibition [5]: Dose-dependent effect
IC50 [6]: 10 nM
inhibition in vivo at 100 mg/kg [7]: 65%
Activity [8]: 0.62 mL
IC50 [9]: 1.2 nM
Cp [10]: 440 ng/mL
IC50 [11]: 4000 nM
Activity [12]: Active
Activity [13]: Non-toxic
IC50 [14]: 7000 nM
Cmax [15]: 4160 ng/mL
IC50 [16]: 22 nM
bioavailability [17]: 23%

C#CCN1CCC(C(=O)NO)(S(=O)(=O)c2ccc(Oc3ccc(S(C)(=O)=O)cc3)cc2)CC1
IC50 [3]: 3.3 nM
IC50 [18]: 2.9 nM
Activity [8]: 0.63 mL
IC50 [11]: > 10000 nM

O=C(NO)C1(S(=O)(=O)c2ccc(Oc3ccc(OC(F)(F)F)cc3)cc2)CCN(Cc2cccnc2)CC1
IC50 [3]: < 0.1 nM
half-life [4]: 1.05 h
IC50 [18]: 0.2 nM
IC50 [9]: 1.5 nM
Cp [10]: 1900 ng/mL
IC50 [11]: 4600 nM
IC50 [14]: > 10000 nM
Cmax [15]: 52600 ng/mL
IC50 [16]: 42.5 nM
bioavailability [17]: 49.8%

COCCN1CCC(C(=O)NO)(S(=O)(=O)c2ccc(Oc3ccc(OC(F)(F)F)cc3)cc2)CC1
Cmax [19]: 60600 ng/mL
AUC(0-inf) [20]: 29.3 µg·h/mL
inhibition in vivo at 5 mg/kg [21]: 60%
Cmax [22]: 41000 ng/mL
Tmax [23]: 2 h
IC50 [3]: < 0.1 nM
half-life [4]: 2.94 h
AUC(0-inf) [24]: 36.1 µg·h/mL
bioavailability [25]: 51.7%
Cmax [26]: 69800 ng/mL
AUC(0-inf) [27]: 156 µg·h/mL
Cmax [28]: 68900 ng/mL
bioavailability [29]: 69.2%
bioavailability [30]: 64%
IC50 [18]: < 0.1 nM
Cmax [31]: 37100 ng/mL
AUC(0-inf) [32]: 668 µg·h/mL
inhibition [5]: Dose-dependent effect
bioavailability [33]: 53.8%
AUC(0-inf) [34]: 191 µg·h/mL
Cmax [35]: 26600 ng/mL
Tmax [36]: 0.833 h
bioavailability [37]: 80.8%
Tmax [38]: 4 h
IC50 [9]: 1.7 nM
Tmax [39]: 1.67 h
Cp [10]: 20521 ng/mL
Tmax [40]: 0.5 h
IC50 [11]: > 10000 nM
Cmax [41]: 42400 ng/mL
bioavailability [42]: 82.2%
AUC(0-inf) [43]: 273 µg·h/mL
IC50 [14]: 7000 nM
Tmax [44]: 0.167 h
Cmax [15]: 29600 ng/mL
bioavailability [45]: 66.6%
AUC(0-inf) [46]: 228 µg·h/mL
Activity [47]: 0.51 mL
IC50 [16]: 28.7 nM
bioavailability [17]: 67.9%
Tmax [48]: 0.167 h

O=C(NO)C1(S(=O)(=O)c2ccc(Oc3ccc(C(F)(F)F)cc3)cc2)CCN(C2CC2)CC1
IC50 [3]: 0.1 nM
half-life [4]: 1.48 h
IC50 [9]: 1.3 nM
Cp [10]: 631 ng/mL
IC50 [14]: > 10000 nM
Cmax [15]: 8320 ng/mL
IC50 [16]: 76.8 nM
bioavailability [17]: 36.3%
